In US7034035B2, “Fungicidal mono-, bi-, and tri-cycloheteroalkyl amides and their compositions, methods of use and preparation” (priority 1999, dated 2006):

Legend:
[1] = tested on: Rhizoctonia solani (RHIZSO); test: microbe, parasite or virus in culture; format: cell-based; settings: for inhibition of growth at 25 µg/mL: Rhizoctonia solani, read-out: RHIZSO in vitro Growth Inhibition
Septoria tritici—SEPTTR = test: Leaf Blotch of Wheat, in vivo whole plant, 24 Hour Protectant; settings: wheat (cultivar Yuma), sprayed at 100 ppm, inoculated after 24 hours, control of fungal infection vs untreated plants
Ustilago maydis (USTIMA) = test: microbe, parasite or virus in culture; format: cell-based; settings: for inhibition of growth at 25 µg/mL: Mycosarcoma maydis, read-out: USTIMA in vitro Growth Inhibition
[2] = tested on: Phytophthora infestans—PHYTIN; test: whole plant or invertebrate; format: in vivo
[3] = tested on: Puccinia recondita—PUCCRT; test: Brown Rust of Wheat, in vivo whole plant, 24 Hour Protectant; settings: wheat (cultivar Yuma), sprayed at 100 ppm, inoculated after 24 hours, control of fungal infection vs untreated plants; for pest or weed control at 100 ppm: Puccinia, read-out: PUCCRT in vivo 1 Day Protectant
[4] = tested on: Mycosphaerella graminicola (Septoria tritici—SEPTTR); test: Inhibition of in vitro fungal growth, SEPTTR; format: cell-based; design: inhibition of growth: dose or concentration left out as unconfirmed; settings: for inhibition of growth: Zymoseptoria tritici, in vitro fungal growth
Erysiphe graminis—ERYSGT = test: Powdery Mildew of Wheat, in vivo whole plant, 24 Hour Protectant; settings: for ERYSGT in vivo 1 Day Protectant: wheat (cultivar Monon), sprayed at 100 ppm, inoculated after 24 hours, control of fungal infection vs untreated plants
[5] = tested on: Stagonospora nodorum (Leptosphaeria nodorum—LEPTNO); test: Inhibition of in vitro fungal growth, LEPTNO; format: cell-based; design: inhibition of growth: dose or concentration left out as unconfirmed; settings: for inhibition of growth: Leptosphaeria, in vitro fungal growth
[6] = tested on: Phytophthora infestans (PHYTIN); test: microbe, parasite or virus in culture; format: cell-based; settings: for inhibition of growth at 25 µg/mL: Phytophthora infestans, read-out: PHYTIN in vitro Growth Inhibition
[7] = tested on: Magnaporthe grisea (Pyricularia oryzae—PYRIOR); test: microbe, parasite or virus in culture; format: cell-based; settings: for inhibition of growth at 25 µg/mL: Pyricularia oryzae, read-out: PYRIOR in vitro Growth Inhibition
[8] = tested on: Leptosphaeria nodorum—LEPTNO; test: Glume Blotch of Wheat, in vivo whole plant, 24 Hour Protectant; settings: wheat (cultivar Yuma), sprayed at 100 ppm, inoculated after 24 hours, control of fungal infection vs untreated plants; for pest or weed control at 100 ppm: Leptosphaeria, 24 h, read-out: LEPTNO in vivo 1 Day Protectant

Row | Compound | RHIZSO in vitro Growth Inhibition [1] | USTIMA in vitro Growth Inhibition (Ustilago maydis (USTIMA)) | PUCCRT in vivo 1 Day Protectant [3] | SEPTTR in vitro Growth Inhibition [4] | ERYSGT in vivo 1 Day Protectant (Erysiphe graminis—ERYSGT) | LEPTNO in vitro Growth Inhibition [5] | LEPTNO in vivo 1 Day Protectant [8] | inhibition of growth at 25 µg/mL [1] [%] | inhibition of growth at 25 µg/mL (Ustilago maydis (USTIMA)) [%] | pest or weed control at 100 ppm [3] [%] | inhibition of growth [4] [%] | inhibition of growth [5] [%] | inhibition of growth at 25 µg/mL [6] [%] | inhibition of growth at 25 µg/mL [7] [%] | pest or weed control at 100 ppm [8] [%] | other results
1 | N-(3-Hydroxy-4-Methoxy-2-Pyridylcarbonyl)-2-Amino-2-Deoxy-alpha-D-Glucopyranose [Compound 334] | − (key: +: at least 80% growth inhibition; −: less than 80% growth inhibition) | − (key: +: at least 80% growth inhibition; −: less than 80% growth inhibition) | − (<25% control of fungal infection) | − (key: +: at least 80% growth inhibition; −: less than 80% growth inhibition) | − (<25% control of fungal infection) | − (key: +: at least 80% growth inhibition; −: less than 80% growth inhibition) | + (25-74% control of fungal infection) | – | – | – | – | – | – | – | – | SEPTTR in vivo 1 Day Protectant (Septoria tritici—SEPTTR): − (<25% control of fungal infection); PHYTIN in vivo 1 Day Protectant ([2]; tomato (cultivar Rutgers), sprayed at 100 ppm, inoculated after 24 hours, control of fungal infection vs untreated plants): − (<25% control of fungal infection); PHYTIN in vitro Growth Inhibition ([6]; in vitro fungal growth): − (less than 80% growth inhibition); PYRIOR in vitro Growth Inhibition ([7]; in vitro fungal growth): − (less than 80% growth inhibition)
2 | COc1ccnc(C(=O)NC2CCN(Cc3cccc(C(F)(F)F)c3)CC2)c1O.O=C(O)/C=C\C(=O)O.O=C(O)/C=C\C(=O)O [Compound 307] | − (key: +: at least 80% growth inhibition; −: less than 80% growth inhibition) | − (key: +: at least 80% growth inhibition; −: less than 80% growth inhibition) | − (<25% control of fungal infection) | − (key: +: at least 80% growth inhibition; −: less than 80% growth inhibition) | + (25-74% control of fungal infection) | − (key: +: at least 80% growth inhibition; −: less than 80% growth inhibition) | − (<25% control of fungal infection) | – | – | – | – | – | – | – | – | –
3 | COC(=O)C(Cc1ccc(OCc2ccccc2)cc1)NC(=O)c1nccc(OC)c1O (single isomer, unassigned) [Compound 338] | – | – | – | – | – | – | – | < 80 | > 80 | 75 to 100 | < 80 | < 80 | < 80 | < 80 | 75 to 100 | –
4 | COc1ccnc(C(=O)N[C@H]2C[C@@H](O[Si](C)(C)C(C)(C)C)O[C@@H](C)[C@@H]2OCc2ccccc2)c1O [Compound 328] | − (key: +: at least 80% growth inhibition; −: less than 80% growth inhibition) | − (key: +: at least 80% growth inhibition; −: less than 80% growth inhibition) | – | − (key: +: at least 80% growth inhibition; −: less than 80% growth inhibition) | – | − (key: +: at least 80% growth inhibition; −: less than 80% growth inhibition) | – | – | – | – | – | – | – | – | – | –
5 | COc1ccnc(C(=O)NC2CC(C)(C)C(OC(=O)c3cccc(Cl)n3)C(C)(C)C2)c1O (centres unmarked) [Compound 269] | − (key: +: at least 80% growth inhibition; −: less than 80% growth inhibition) | − (key: +: at least 80% growth inhibition; −: less than 80% growth inhibition) | – | – | – | – | – | – | – | – | – | – | – | – | – | melting point: 55 to 56 °C
6 | COc1ccnc(C(=O)N[C@@H]2CC3CC2[C@@H](C(=O)OC(C)C)C3)c1O (some centres unmarked) [Compound 298] | – | – | – | – | – | – | – | > 80 | < 80 | 25 to 74 | < 80 | < 80 | < 80 | < 80 | 25 to 74 | pest or weed control at 100 ppm (Septoria tritici—SEPTTR; Zymoseptoria tritici, read-out: SEPTTR in vivo 1 Day Protectant): 25 to 74%; pest or weed control at 100 ppm ([2]; Phytophthora, in Solanum lycopersicum, 24 h, read-out: PHYTIN in vivo 1 Day Protectant): < 25%; pest or weed control at 100 ppm (Erysiphe graminis—ERYSGT; Erysiphe, in Triticum aestivum, 24 h, read-out: ERYSGT in vivo 1 Day Protectant): < 25%
